Where a SMILES comes first, the peptide text is derived from it. [ ]: non-standard residue; d: D form. The star is where a group is joined. Doxorubicin(3'-N) = COc1cccc2c1C(=O)c1c(O)c3c(c(O)c1C2=O)C[C@@](O)(C(=O)CO)C[C@@H]3O[C@H]1C[C@H](N*)[C@H](O)[C@H](C)O1; X2 = COCCOCCOCCOCCOCCOCCOCCOCCOCCOCCOCCOCCOCCOCCOCCOCCOCC(=O)*; X5 = COCCOCCOCCOCCOCCOCCOCCOCCOCCOCCOCCOCCOCCOCCOCCOCC(=O)*; X6 = COCCOCCOCCOCCOCCOCCOCCOCCOCCOCCOCCOCCOCCOCCOCC(=O)*; Decanoyl(3,6,9-trioxa) = COCCOCCOCC(=O)*; Glyceroyl(2R) = O=C([C@H](O)CO)*; X1 = COCCOCCOCCOCCOCCOCCOCC(=O)*; hArg = N=C(N)NCCCC[C@H](N)C(=O)O; 3Pal = N[C@@H](Cc1cccnc1)C(=O)O; X4 = O=C([C@H](O)[C@@H](O)CO)*; Chg = N[C@H](C(=O)O)C1CCCCC1; Nle = CCCC[C@H](N)C(=O)O; Glycolyl = O=C(CO)*
Legend:
[1] = tested on: DuPRO cells; assay: In vitro cytotoxicity of peptidyl derivatives of doxorubicin, Alamar Blue assay, DuPRO; type: cell-based; settings: 3 days incubation, read-out: DuPRO cell kill EC 50 (μM), value in parentheses
Experimental: The cytotoxicities of the cleaveable oligopeptide-doxorubicin conjugates, prepared as described in Examples 3-6, against a line of cells which is known to be killed by unmodified doxorubicin was assessed with an Alamar Blue assay. Specifically, cell cultures of LNCap prostate tumor cells or DuPRO cells in 96 well plates was diluted with medium containing various concentrations of a given conjugate (final plate well volume of 200 μl). The cells were incubated for 3 days at 37° C., 20 μl of Alamar Blue is added to the assay well. The cells were further incubated and the assay plates were read on a EL-310 ELISA reader at the dual wavelengths of 570 and 600 nm at 4 and 7 hours after addition of Alamar Blue. Relative percentage viability at the various concentration of conjugate tested was then calculated versus control (no conjugate) cultures. If no salt is indicated, the free conjugate was tested.

[2] = molecular target: T1, free PSA (Homo sapiens, UniProt P07288); assay: Recognition of oligopeptide-doxorubicin conjugates by free PSA (time to 50% cleavage, HPLC); type: biochemical; set-up: required for 50% cleavage of the noted oligopeptides with enzymatically active free PSA
T1 sequence (P07288 25-261): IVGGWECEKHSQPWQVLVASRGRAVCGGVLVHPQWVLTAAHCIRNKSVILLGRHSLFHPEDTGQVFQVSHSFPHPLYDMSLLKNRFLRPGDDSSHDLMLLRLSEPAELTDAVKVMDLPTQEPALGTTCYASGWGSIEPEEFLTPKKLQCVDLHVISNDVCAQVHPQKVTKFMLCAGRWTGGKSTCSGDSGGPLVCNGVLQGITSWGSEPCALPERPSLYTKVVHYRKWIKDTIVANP
Experimental: If no salt is indicated for the conjugate, the free conjugate was tested.

[3] = molecular target: T1, free PSA; assay: Recognition of oligopeptides by free PSA (time to 50% cleavage, HPLC)
Experimental: The oligopeptides prepared as described in Example 1 were individually dissolved in PSA digestion buffer (12 mM tris(hydroxymethyl)-aminomethane pH8.0, 25 mM NaCl, 0.5 mM CaCl2) and the solution added to PSA at a molar ration of 100 to 1. The reaction is quenched after various reaction times by the addition of trifluoroacetic acid (TFA) to a final 1% (volume/volume). The quenched reaction was analyzed by HPLC on a reversed-phase C18 column using an aqueous 0.1% TFA/acetonitrile gradient. […] Oligopeptides containing free amine moieties (ie. comprising hArg, Orn, Lys and or 3PAL) were tested as TFA salts. All other oligopeptides were tested as neutral compounds.

[4] = Table 2, oligopeptides, PSA digestion buffer 12 mM Tris pH8.0, 25 mM NaCl, 0.5 mM CaCl2, substrate:PSA 100 to 1

## COc1cccc2c1C(=O)c1c(O)c3c(c(O)c1C2=O)C[C@@](O)(C(=O)CO)C[C@@H]3O[C@H]1C[C@H](NC(=O)[C@H](CC(C)C)NC(=O)[C@H](CO)NC(=O)[C@H](CO)NC(=O)[C@H](CO)NC(=O)[C@H](CCC(N)=O)NC(=O)[C@H](Cc2ccc(O)cc2)NC(=O)[C@H](CO)NC(=O)CO)[C@H](O)[C@H](C)O1 [2-hydroxyacetyl-SYQ-SSSL-DOX(3'), 2-hydroxyacetyl-SerTyrGln-SerSerSerLeu-DOX (3')] (Glycolyl-SYQSSSL-{Doxorubicin(3'-N)})
[1]
  EC50: 50 µM

## COc1cccc2c1C(=O)c1c(O)c3c(c(O)c1C2=O)C[C@@](O)(C(=O)CO)C[C@@H]3O[C@H]1C[C@H](NC(=O)[C@H](CC(C)C)NC(=O)[C@H](CO)NC(=O)[C@H](CCC(N)=O)NC(=O)[C@@H](NC(=O)[C@H](CO)NC(=O)[C@H](C)NC(=O)[C@H](CCCCNC(=N)N)NC(=O)CO)C2CCCCC2)[C@H](O)[C@H](C)O1 [2-hydroxyacetyl-hRASChgQ-SL-DOX(3'), 2-hydroxyacetyl-hArgAlaSerChgGln-SerLeu-DOX (3')] (Glycolyl-[hArg]AS[Chg]QSL-{Doxorubicin(3'-N)})
[1]
  EC50: > 100 µM

## COc1cccc2c1C(=O)c1c(O)c3c(c(O)c1C2=O)C[C@@](O)(C(=O)CO)C[C@@H]3O[C@H]1C[C@H](NC(=O)[C@H](CC(C)C)NC(=O)[C@H](CO)NC(=O)[C@H](CCC(N)=O)NC(=O)[C@H](Cc2ccc(O)cc2)NC(=O)[C@H](CO)NC(=O)[C@H](CO)NC(=O)[C@H](CCCCNC(=N)N)NC(=O)CO)[C@H](O)[C@H](C)O1 [2-hydroxyacetyl-hRSSYQ-SL-DOX(3'), 2-hydroxyacetyl-hArgSerSerTyrGln-SerLeu-DOX (3')] (Glycolyl-[hArg]SSYQSL-{Doxorubicin(3'-N)})
[1]
  EC50: > 100 µM

## CCCC[C@H](NC(=O)[C@H](CO)NC(=O)[C@H](CCC(N)=O)NC(=O)[C@H](Cc1ccc(O)cc1)NC(=O)[C@H](CO)NC(=O)[C@H](CO)NC(=O)[C@H](CCCCNC(=N)N)NC(=O)CO)C(=O)N[C@H]1C[C@H](O[C@H]2C[C@](O)(C(=O)CO)Cc3c(O)c4c(c(O)c32)C(=O)c2c(OC)cccc2C4=O)O[C@@H](C)[C@H]1O [2-hydroxyacetyl-hRSSYQ-SNle-DOX(3'), 2-hydroxyacetyl-hArgSerSerTyrGln-SerNle-DOX (3')] (Glycolyl-[hArg]SSYQS[Nle]-{Doxorubicin(3'-N)})
[2]; Table 3, alternative PSA digestion buffer 12 mM Tris pH8.0, 25 mM NaCl, 0.5 mM CaCl2
  Time to 50% Substrate Cleavage by York PSA (Min), value marked *: 60 min

## COc1cccc2c1C(=O)c1c(O)c3c(c(O)c1C2=O)C[C@@](O)(C(=O)CO)C[C@@H]3O[C@H]1C[C@H](NC(=O)[C@H](CC(C)C)NC(=O)[C@H](CO)NC(=O)[C@H](CCC(N)=O)NC(=O)[C@@H](NC(=O)[C@H](CCCCNC(=N)N)NC(=O)[C@H](O)[C@@H](O)CO)C2CCCCC2)[C@H](O)[C@H](C)O1 [(2R,3S) 2,3,4-trihydroxybutanoyl-hArgChgGln-SerLeu-DOX (3')] (X4-[hArg][Chg]QSL-{Doxorubicin(3'-N)})
[2]; Table 3, DOX conjugates, 4 hours
  Substrate cleavage by York PSA at 4 HOUR: 0%

## COc1cccc2c1C(=O)c1c(O)c3c(c(O)c1C2=O)C[C@@](O)(C(=O)CO)C[C@@H]3O[C@H]1C[C@H](NC(=O)[C@H](CC(C)C)NC(=O)[C@H](CO)NC(=O)[C@H](CCC(N)=O)NC(=O)[C@@H](NC(=O)[C@H](CO)NC(=O)[C@H](CO)NC(=O)[C@H](Cc2cccnc2)NC(=O)[C@H](O)CO)C2CCCCC2)[C@H](O)[C@H](C)O1 [(d)(2,3-dihydroxypropionyl)-3PAL-SerSerChgGln-SerLeu-DOX (3')] ({Glyceroyl(2R)}-[3Pal]SS[Chg]QSL-{Doxorubicin(3'-N)})
[1]
  EC50: > 100 µM

## COCCOCCOCC(=O)N[C@@H](CO)C(=O)N[C@@H](CO)C(=O)N[C@@H](Cc1ccc(O)cc1)C(=O)N[C@@H](CCC(N)=O)C(=O)N[C@@H](CO)C(=O)N[C@@H](CC(C)C)C(=O)O [PEG(2)-SSYQ-SL-acid] ({Decanoyl(3,6,9-trioxa)}-SSYQSL-OH)
[3]; free psa, pH 8
  Time to 50% Substrate Cleavage by York PSA: 150 min

## COCCOCCOCC(=O)N[C@@H](CO)C(=O)N[C@@H](CCCCNC(=N)N)C(=O)N[C@@H](Cc1ccc(O)cc1)C(=O)N[C@@H](CCC(N)=O)C(=O)N[C@@H](CO)C(=O)N[C@@H](CC(C)C)C(=O)O [PEG(2)-ShRYQ-SL-acid] ({Decanoyl(3,6,9-trioxa)}-S[hArg]YQSL-OH)
[3]; free psa
  Time to 50% Substrate Cleavage by York PSA (Min), values marked *: 35 min

## COCCOCCOCC(=O)N[C@@H](CCCCNC(=N)N)C(=O)N[C@@H](CO)C(=O)N[C@@H](CO)C(=O)N[C@H](C(=O)N[C@@H](CCC(N)=O)C(=O)N[C@@H](CO)C(=O)N[C@@H](CC(C)C)C(=O)O)C1CCCCC1 [PEG(2)-hRSSChgQ-SL-acid] ({Decanoyl(3,6,9-trioxa)}-[hArg]SS[Chg]QSL-OH)
[3]; free psa
  Time to 50% Substrate Cleavage by York PSA (Min), values marked *: 40 min

## COCCOCCOCC(=O)N[C@@H](CO)C(=O)N[C@@H](CO)C(=O)N[C@@H](CO)C(=O)N[C@H](C(=O)N[C@@H](CCC(N)=O)C(=O)N[C@@H](CO)C(=O)N[C@@H](CC(C)C)C(=O)O)C1CCCCC1 [PEG(2)SSSChgQ-SL-acid] ({Decanoyl(3,6,9-trioxa)}-SSS[Chg]QSL-OH)
[3]; free psa, pH 8
  Time to 50% Substrate Cleavage by York PSA: 150 min

## COCCOCCOCCOCCOCCOCCOCC(=O)N[C@@H](C)C(=O)N[C@@H](CO)C(=O)N[C@H](C(=O)N[C@@H](CCC(N)=O)C(=O)N[C@@H](CO)C(=O)N[C@@H](CC(C)C)C(=O)N[C@H]1C[C@H](O[C@H]2C[C@](O)(C(=O)CO)Cc3c(O)c4c(c(O)c32)C(=O)c2c(OC)cccc2C4=O)O[C@@H](C)[C@H]1O)C1CCCCC1 [PEG(6)-ASChgQ-SL-DOX(3'), PEG(6)-AlaSerChgGln-SerLeu-DOX (3')] (X1-AS[Chg]QSL-{Doxorubicin(3'-N)})
[1]
  EC50: 100 µM

## COCCOCCOCCOCCOCCOCCOCCOCCOCCOCCOCCOCCOCCOCCOCC(=O)N[C@@H](CO)C(=O)N[C@@H](CCCCNC(=N)N)C(=O)N[C@@H](Cc1ccc(O)cc1)C(=O)N[C@@H](CCC(N)=O)C(=O)N[C@@H](CO)C(=O)N[C@@H](CC(C)C)C(=O)O [PEG(14)ShRYQ-SL-acid] (X6-S[hArg]YQSL-OH)
[3]; free psa, pH 8
  Time to 50% Substrate Cleavage by York PSA: 40 min

## COCCOCCOCCOCCOCCOCCOCCOCCOCCOCCOCCOCCOCCOCCOCCOCC(=O)N[C@@H](CO)C(=O)N[C@@H](CCCCNC(=N)N)C(=O)N[C@@H](Cc1ccc(O)cc1)C(=O)N[C@@H](CCC(N)=O)C(=O)N[C@@H](CO)C(=O)N[C@@H](CC(C)C)C(=O)O [PEG(15)-ShRYQ-SL-acid] (X5-S[hArg]YQSL-OH)
[3]; free psa, pH 8
  Time to 50% Substrate Cleavage by York PSA: 40 min

## COCCOCCOCCOCCOCCOCCOCCOCCOCCOCCOCCOCCOCCOCCOCCOCCOCC(=O)N[C@@H](CO)C(=O)N[C@@H](CCCCNC(=N)N)C(=O)N[C@@H](Cc1ccc(O)cc1)C(=O)N[C@@H](CCC(N)=O)C(=O)N[C@@H](CO)C(=O)N[C@@H](CC(C)C)C(=O)O [PEG(16)-ShRYQ-SL-acid] (X2-S[hArg]YQSL-OH)
[3]; free psa, pH 8
  Time to 50% Substrate Cleavage by York PSA: 40 min

## COCCOCCOCCOCCOCCOCCOCCOCCOCCOCCOCCOCCOCCOCCOCCOCCOCCOCC(=O)N[C@@H](CO)C(=O)N[C@@H](CCCCNC(=N)N)C(=O)N[C@@H](Cc1ccc(O)cc1)C(=O)N[C@@H](CCC(N)=O)C(=O)N[C@@H](CO)C(=O)N[C@@H](CC(C)C)C(=O)O [PEG(17)-ShRYQ-SL-acid]
[3]; [4]
  Time to 50% Substrate Cleavage by York PSA: 55 min

## COCCOCCOCCOCCOCCOCCOCCOCCOCCOCCOCCOCCOCCOCCOCCOCCOCCOCCOCC(=O)N[C@@H](CO)C(=O)N[C@@H](CCCCNC(=N)N)C(=O)N[C@@H](Cc1ccc(O)cc1)C(=O)N[C@@H](CCC(N)=O)C(=O)N[C@@H](CO)C(=O)N[C@@H](CC(C)C)C(=O)O [PEG(18)ShRYQ-SL-acid]
[3]; free psa, pH 8
  Time to 50% Substrate Cleavage by York PSA: 40 min

## COCCOCCOCCOCCOCCOCCOCCOCCOCCOCCOCCOCCOCCOCCOCCOCCOCCOCCOCCOCC(=O)N[C@@H](CO)C(=O)N[C@@H](CCCCNC(=N)N)C(=O)N[C@@H](Cc1ccc(O)cc1)C(=O)N[C@@H](CCC(N)=O)C(=O)N[C@@H](CO)C(=O)N[C@@H](CC(C)C)C(=O)O [PEG(19)ShRYQ-SL-acid]
[3]; free psa, pH 8
  Time to 50% Substrate Cleavage by York PSA: 60 min

## CC(C)C[C@H](NC(=O)[C@H](CO)NC(=O)[C@H](CCC(N)=O)NC(=O)[C@@H](NC(=O)[C@H](CCCCNC(=N)N)NC(=O)[C@@H](N)CO)C1CCCCC1)C(=O)O [ShRChgQ-SL -acid] (H-S[hArg][Chg]QSL-OH)
[3]; Table 2, oligopeptides, 4 hours
  Substrate cleavage by York PSA at 4 HOUR: 8%

## PEG(4)-β-PAL-SSChgQ-SL-acid
[3]; [4]
  Time to 50% Substrate Cleavage by York PSA: 60 min

Source: patent US5998362A, “Conjugates useful in the treatment of prostate cancer” (priority 1997, dated 1999)
